Test in all cases: NCI60 five-dose screen
Common to all, as to assay type: cell-based

The subject of one experiment is KM12. As to conditions: Homo sapiens; KM12, Colon Cancer. The procedure:
(§1) Since all new conjugates (3a–h) had notable antiproliferative activities on several tumor cell lines in the course of the one-dose screening, they were subjected to a five-dose test. […] J. Mol. Sci. 2025, 26, 11063 10 of 10 S.3. NCI60 Screening A detailed description of the NCI screening procedures can also be found on the website of NCI [39], and in our previous work. S.3.1. One-Dose Screen All candidates were examined at first at a single high dose (10 μM) in the full NCI60 cell panel. The value reported for the one-dose test is growth relative to the no-drug control and relative to the time zero number of cells. This made possible the disclosure of both growth inhibition (numbers between 0 and 100) and lethality (numbers less than 0). For example, a value of 100 means no growth inhibition. A value of 20 would mean 80% growth inhibition. A value of 0 means no net growth over the course of the analysis. A value of −20 would mean 20% lethality. A value of −100 means all cells are dead. S.3.2. […] The human tumor cell lines of the cancer screening panel were grown in RPMI 1640 medium containing 5% fetal bovine serum and 2 mM l-glutamine. Characteristically, cells were injected in 96-well microtiter plates in 0.1 mL at plating densities ranging from 5000 to 40,000 cells/well, depending on the doubling time of individual cell lines. After cell inoculation, the microtiter plates were incubated at 37 °C, 5% carbon dioxide, 95% air, and 100% relative humidity for 24 hours before the addition of tested compounds. After 24 hours, 2 plates of each cell line were fixed in situ with Cl3COOH (TCA), to represent a measurement of the cell population for each cell line at the time of drug addition (tz). Tested compounds were solubilized in DMSO at 400-fold the desired final maximum test concentration and stored frozen before application. In the course of the drug addition, an aliquot of frozen concentrate was thawed and diluted to twice the desired final maximum test concentration with a complete medium containing 50 μg mL−1 gentamicin. Additional four, 10-fold or ½ log serial dilutions were produced to furnish a total of five drug concentrations plus control. Aliquots of 0.1 mL of these different drug dilutions were added to the appropriate microtiter wells already containing 0.1 mL of medium, resulting in the required final drug concentrations. Following drug addition, the plates were incubated at 37 °C, 5% carbon dioxide, 95% air, and 100% relative humidity for an additional 48 hours. For adherent cells, the test was finished by the addition of cold Cl3COOH. Cells were fixed in situ by the addition of 50 μL of cold 50% (w/v) Cl3COOH, and incubated at 4 °C for 1 hour. The supernatant was discarded, and the plates were washed with H2O (5×) and dried in air. Sulforhodamine B (SRB) solution (0.1 mL) at 0.4% (w/v) in 1% CH3COOH was added to each well, and plates were incubated at RT for 10 min. After staining, the unbound dye was removed by washing five times with 1% CH3COOH, and the plates were dried in the air. The bound stain is afterward solubilized with a 10 mM trizma base, and the absorbance is read on an automated plate reader at λ = 515 nm. Utilizing the seven absorbance measurements [time zero (tz), control growth (c), and test growth in the presence of the drug at the five concentration levels (ti)], the percentage growth was determined at each of the drug concentration levels. Growth inhibition (%) was calculated as: [(ti − tz)/(c − tz)] × 100, for concentrations where ti ≥ tz (1) [(ti − tz)/(tz)] × 100, for concentrations where ti < tz. (2) Three dose‒response parameters were calculated as follows. GI50 (growth inhibition of 50%) was determined from Equation (3), which is the drug concentration resulting in a 50% reduction in the net protein increase (as measured by SRB staining) in control cells in the course of the drug incubation. [(ti − tz)/(c − tz)] × 100 = 50 (3)

For a further experiment, the system named is SK-MEL-28. As to conditions: Homo sapiens; SK-MEL-28, Melanoma. The procedure: as §1
The test system of another experiment is NCI-H23. Conditions: Homo sapiens; NCI-H23, Non-small-Cell Lung Cancer. The procedure: as §1
The test system of a further experiment is 786-0. Conditions: Homo sapiens; 786-0, Renal Cancer. How it is done: as §1
The test system of a further experiment is A549/ATCC. Conditions: Homo sapiens, Non-small-Cell Lung Cancer. The procedure: as §1
The test system of another experiment is CCRF-CEM. Conditions: Homo sapiens, Leukemia. The procedure: as §1
The test system of another experiment is K-562. Conditions: Homo sapiens, K562; K-562, Leukemia. How it is done: as §1
The subject of a further experiment is DU-145. Conditions: Homo sapiens; DU-145, Prostate Cancer. The procedure: as §1
For a further experiment, the system named is A498. Conditions: Homo sapiens; A498, Renal Cancer. The procedure: as §1
The test system of the next experiment is HOP-62. Conditions: Homo sapiens; HOP-62, Non-small-Cell Lung Cancer. The procedure: as §1
A further experiment concerns SK-MEL-2. Conditions: Homo sapiens; SK-MEL-2, Melanoma. How it is done: as §1
The test system of a further experiment is SF-295. As to conditions: Homo sapiens; SF-295, CNS Cancer. The procedure: as §1
A further experiment deals with UO-31. As to conditions: Homo sapiens; UO-31, Renal Cancer. The procedure: as §1
In a further experiment the test system is NCI/ADR-RES. Conditions: Homo sapiens, Ovarian Cancer. The procedure:
as §1

The next experiment has as its system T-47D. Conditions: Homo sapiens, T47D, Breast Cancer. How it is done:
as §1

A further experiment relates to RXF 393. Conditions: Homo sapiens; RXF 393, Renal Cancer. The procedure:
as §1

The subject of a further experiment is HT29. As to conditions: Homo sapiens, HT-29; HT29, Colon Cancer. The procedure: as §1
The test system of the next experiment is NCI-H322M. As to conditions: Homo sapiens, Non-small-Cell Lung Cancer. How it is done: as §1
In another experiment the test system is SNB-19. Conditions: Homo sapiens; SNB-19, CNS Cancer. How it is done: as §1
The subject of a further experiment is BT-549. As to conditions: Homo sapiens; BT-549, Breast Cancer. How it is done: as §1
For a further experiment, the system named is MDA-MB-435. As to conditions: Homo sapiens; MDA-MB-435, Melanoma. How it is done:
as §1

A further experiment has as its system SK-OV-3. As to conditions: Homo sapiens; SK-OV-3, Ovarian Cancer. The procedure: as §1

What is called GI50 is the concentration giving 50% growth inhibition. A lower GI50 goes with more potent growth inhibition. On to `COc1c(C)cc([P+](CCCCOc2cc(O)c3c(=O)cc(-c4ccccc4)oc3c2)(c2cc(C)c(OC)c(C)c2)c2cc(C)c(OC)c(C)c2)cc1C` [3f], for which the GI50 in the experiment on KM12 came to 195 nM; with SK-MEL-28, 491 nM; in the experiment with NCI-H23 it was 283 nM; in the experiment on 786-0, 338 nM; with A549/ATCC, 314 nM; with CCRF-CEM it was 103 nM. Further, the concentration for 50% growth inhibition (GI50) in the experiment with K-562 stood at 34 nM; in the experiment with DU-145, 339 nM; with A498 it was 367 nM; in the experiment on HOP-62, 311 nM; in the experiment on SK-MEL-2 it was 292 nM; with SF-295 it was 240 nM. For the same molecule, the concentration for 50% growth inhibition (GI50) in the experiment with UO-31 turned out to be 277 nM; in the experiment on NCI/ADR-RES it was 1580 nM; in the experiment on T-47D, 121 nM; with RXF 393, 191 nM; in the experiment with HT29, 646 nM; in the experiment on NCI-H322M it was 432 nM. The concentration for 50% growth inhibition (GI50) turned out to be 276 nM in the experiment on SNB-19, 280 nM in the experiment with BT-549, 296 nM in the experiment with MDA-MB-435 and 263 nM in the experiment with SK-OV-3.

For `O=c1cc(-c2ccccc2)oc2cc(OCCCC[P+](c3ccccc3)(c3ccccc3)c3ccccn3)cc(O)c12` [3h], the concentration for 50% growth inhibition (GI50) worked out at 523 nM with KM12; 570 nM in the experiment on SK-MEL-28; 776 nM in the experiment on NCI-H23; 1570 nM in the experiment with 786-0; 1130 nM with A549/ATCC; 334 nM in the experiment on CCRF-CEM. The 50% growth inhibitory concentration (GI50) in the experiment with K-562 came to 189 nM; in the experiment on DU-145, 1220 nM; in the experiment with A498 it was 1730 nM; in the experiment on HOP-62, 1520 nM; with SK-MEL-2 it was 758 nM; in the experiment on SF-295 it was 1360 nM. In addition, the GI50 in the experiment on UO-31 was determined as 1540 nM; with NCI/ADR-RES it was 7550 nM; with T-47D, 259 nM; with RXF 393, 608 nM; in the experiment on HT29, 1750 nM; in the experiment with NCI-H322M it was 2040 nM. For the same molecule, the 50% growth inhibitory concentration (GI50) in the experiment on SNB-19 turned out to be 524 nM; with BT-549, 293 nM; in the experiment with MDA-MB-435 it was 376 nM; with SK-OV-3, 1520 nM.
